In patent US8716233B2, “NOTCH mutations leading to increased receptor signaling” (The Brigham and Women's Hospital, Inc., priority 2004, dated 2014):

Tests used:
NOTCH-1 = assay: NOTCH-sensitive luciferase reporter gene assay in transiently transfected U2OS cells; format: cell-based, human
Description: FIG. 4A-4B. HD and PEST domain mutations activate NOTCH-1 signaling synergistically. (4A) Reporter gene assays. U2OS cells were transiently co-transfected in 24-well format with the indicated pcDNA3 plasmids, a NOTCH-responsive luciferase reporter gene, and an internal Renilla luciferase internal control plasmid, as described previously (Aster, et al., Mol. Cell. Biol. 20:7505-15). Twenty-five ng of pcDNA3 plasmid was used per well, except for experiments with pcDNA3-ICN1, in which 5 ng of plasmid per well were used. Normalized luciferase activities in whole cell lysates were determined in triplicate and expressed relative to the activity in lysates prepared from cells transfected with the empty vector control. (4B) Model for synergistic NOTCH-1 activation by dual mutations involving both the HD and PEST domains.
NOTCH-1 expression plasmids (pcDNA3) were transiently transfected with U2OS cells with (i) an artificial luciferase reporter gene under the control of a promoter containing CSL binding sites and (ii) an internal Renilla luciferase control gene, as described previously (Aster, et al., Mol. Cell. Biol. 20:7505-7515 (2000)), using Lipofectamine Plus (Invitrogen). Total DNA was kept constant by adding empty vector as needed. All transfections were carried out in triplicate, and each experiment was repeated at least three times.

human T-ALL cell lines = assay: Gamma-secretase inhibitor treatment of T-ALL cell lines, cell cycle analysis by flow cytometry; format: cell-based; details: compound E 1 μM, 4-8 days; thirty human T-ALL cell lines lacking t(7;9); compared with murine T6E reference line
Description: FIG. 2A-2C. Identification of T-ALL cell lines that require NOTCH signals for growth. (2A) Effect of the γ-secretase inhibitor compound E (GSI, 1 μM) or vehicle alone (mock) on the cell cycle distribution of sensitive cell lines. Cells were treated for 4-8 days, fixed in cold 70% ethanol, stained with propidium iodide, and analyzed by flow cytometry. Live cells were gated by forward/side scatter criteria. (2B) Rescue of GSI-induced cell cycle arrest by MSCV-GFP-ICN1 retrovirus. (2C) Induction of cell cycle arrest by dominant negative MSCV-GFP-Mastermind-like-1 retrovirus. In (2B) and (2C), control cultures were transduced with control empty MSCV-GFP retrovirus or the indicated test virus. Two days post-transduction, cultures were split in two and treated with either compound E (GSI) or DMSO vehicle (mock) for 7-10 days. Cultures were then harvested and stained with the DNA dye DRAQ5, which permits flow cytometric measurement of DNA content in unsorted GFP− and GFP+ subpopulations. A minimum of 15,000 events was collected to create each DNA content histogram. […]
DNA content was ascertained by flow cytometry and cell cycle factors determined using multicycle software (Phoenix Flow Systems, San Diego).

C[C@H](NC(=O)Cc1cc(F)cc(F)c1)C(=O)N[C@H]1N=C(c2ccccc2)c2ccccc2N(C)C1=O [γ-secretase inhibitor, compound E]
stimulatory effects of mutated transmembrane NOTCH-1 polypeptides on luciferase reporter activity (NOTCH-1; HD and/or PEST domain mutated NOTCH-1 plasmids): completely abrogated
stimulation of luciferase reporter activity produced by ICN1 (NOTCH-1; pcDNA3-ICN1 (constitutively nuclear)): unaffected
cell cycle distribution (G0/G1 cell cycle arrest) of T-ALL cell lines (human T-ALL cell lines): five of thirty human T-ALL cell lines tested showed a G0/G1 cell cycle arrest
